In PubChem BioAssay (NCI):
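Step 1: Grow cells in 96-well plates. Step 2: Expose to compound for 48 hours at 5 concentrations. Step 3: Interpolate endpoints linearly; if unreached, use highest concentration. GI50 is the concentration that inhibits growth by half. TGI: total growth inhibition.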

Tests used:
Assay in all cases: NCI anticancer screen, dose series, 48 h
[1] = system: CCRF-CEM leukemia
[2] = system: COLO 205 colon
[3] = system: HT29 colon
[4] = system: KM12 colon
[5] = system: LOX IMVI melanoma
[6] = system: NCI-H23 lung
[7] = system: OVCAR-3 ovarian
[8] = system: OVCAR-4 ovarian
[9] = system: RPMI-8226 leukemia
[10] = system: SNB-19 CNS

SMILES | TGI [1] [µM] | TGI [2] [µM] | TGI [3] [µM] | TGI [4] [µM] | TGI [5] [µM] | TGI [6] [µM] | TGI [7] [µM] | TGI [8] [µM] | TGI [9] [µM] | TGI [10] [µM] | GI50 [1] [µM] | GI50 [2] [µM] | GI50 [3] [µM] | GI50 [4] [µM] | GI50 [5] [µM] | GI50 [6] [µM] | GI50 [7] [µM] | GI50 [8] [µM] | GI50 [9] [µM] | GI50 [10] [µM]
C/C(=N\NC(N)=O)c1sc(-c2nc(C)c(/C(C)=N/NC(N)=O)s2)nc1C | > 100 | > 100 | > 100 | > 100 | > 100 | > 100 | > 100 | > 100 | > 100 | > 100 |  |  |  |  |  |  |  |  |  | 
CCOC(=O)Cc1csc(Nc2ccccc2[N+](=O)[O-])n1 | > 100 | > 100 | > 100 | > 100 | > 70.2 | > 100 | > 100 | > 100 | > 100 | > 100 |  |  |  |  |  |  |  |  |  | 
C=C(C)C(C1C=C(CCC(C=O)=C(C)C)C(=O)O1)C1(OC)C=C(C)C(=O)O1 (stereo not given) | > 100 | > 100 | > 100 | > 100 | > 100 | > 100 | > 100 | > 100 | > 100 | > 100 | 25.3 | 63.6 | 57.9 | > 100 | 39.6 | 91.3 | > 100 | > 100 | > 100 | > 100
COC(=O)c1c(C)cc(OC)c(C/C=C(\C)CCCc2coc(C=C(C)C)c2)c1OC | > 100 | > 100 | > 100 | > 100 | > 100 | > 100 | > 100 | > 100 | > 100 | > 100 |  |  |  |  |  |  |  |  |  | 
COC(=O)/C=C/c1cc(OC(C)=O)c2c(c1)C(C(=O)OC)C(c1ccc(OC(C)=O)c(OC(C)=O)c1)O2 (stereo not given) | > 100 | > 50.6 | > 77.5 | 32.1 | > 83.3 | > 100 | 15.8 | 49.7 | 5.25 | > 100 | 0.0404 | 3.43 | 2.65 | 0.334 | 0.0597 | 0.171 | 0.0374 | 0.345 | 0.0574 | 0.131
CN1Nc2ccccc2CC1=O | > 100 | > 100 | > 100 | > 100 | > 100 | > 100 | > 100 | > 100 | > 100 | > 100 |  |  |  |  |  |  |  |  |  | 
O=[N+]([O-])c1ccccc1N=Nc1c(O)[nH]c2c(Cl)cc(Cl)cc12 | > 100 | > 100 | > 100 | > 100 | > 100 | > 100 | > 74.7 | > 100 | > 100 | > 100 |  |  |  |  |  |  |  |  |  | 
O=C(O)c1ccc(CNCc2ccccc2)cc1 | > 100 | > 100 | > 100 | > 100 | > 100 | > 100 | > 100 | > 100 | > 100 | > 100 |  |  |  |  |  |  |  |  |  | 
CCCCCCCCCCCC[N+]12CC[N+](CCN)(CC1)CC2 | > 100 | > 100 | > 100 | 62.7 | > 100 | > 100 | > 100 | > 100 | > 100 | 64.3 |  |  |  |  |  |  |  |  |  | 
